{"source": "patent US7375058B2", "about": "“Herbicidal mixtures based on 3-phenyluracils” (priority 2002, dated 2008)", "key": {"[1]": {"tested_on": "AVEFA", "experiment": "Greenhouse post-emergence herbicidal action against AVEFA", "type": "in vivo, Avena fatua", "source_text": "(§1) For the post-emergence treatment, the test plants were first grown to a height of 3 to 20 cm, depending on the plant habit, and only then treated. Here, the herbicidal compositions were suspended or emulsified in water as distribution medium and sprayed using finely distributing nozzles\n(§2) The respective components A and B and/or C were formulated as 10% by weight strength emulsion concentrate and introduced to the spray liquor with the amount of solvent system used for applying the active compound. In the examples, the solvent used was water.\n(§3) The test period extended over 21 days. During this time, the plants were tended, and their response to the treatments with active compound was evaluated.\n(§4) The evaluation for the damage caused by the chemical compositions was carried out using a scale from 0 to 100%, compared to the untreated control plants. Here, 0 means no damage and 100 means complete destruction of the plants.\n(§5) In the examples below, the value E which is to be expected if the activity of the individual compounds is just additive was calculated using the method of S. R. Colby (1967) “Calculating synergistic and antagonistic responses of herbicide combinations”, Weeds 15, p. 22 ff. E=X+Y−([…]) where • X=effect in percent using active compound A at an application rate a; • Y=effect in percent using active compound B at an application rate b; • E=expected effect (in %) of A+B at application rates a+b.\n(§6) If the observed effect is higher than the value E calculated according to Colby, a synergistic effect is present."}, "[2]": {"tested_on": "POLPE", "experiment": "Greenhouse post-emergence herbicidal action against POLPE", "type": "in vivo, Polygonum persicaria", "conditions": "21 days", "source_text": "as §1, §2, §3, §4, §5, §6"}, "[3]": {"tested_on": "BRAPL", "experiment": "Greenhouse post-emergence herbicidal action against BRAPL", "type": "in vivo, Brachiaria plantaginea", "conditions": "21 days", "source_text": "as §1, §2, §3, §4, §5, §6"}, "[4]": {"tested_on": "ECHCG", "experiment": "Greenhouse post-emergence herbicidal action against ECHCG", "type": "in vivo, Echinochloa crus-galli", "conditions": "21 days", "source_text": "as §1, §2, §3, §4, §5, §6"}, "[5]": {"tested_on": "ABUTH", "experiment": "Greenhouse post-emergence herbicidal action against ABUTH", "type": "in vivo, Abutilon theophrasti", "conditions": "21 days", "source_text": "as §1, §2, §3, §4, §5, §6"}, "[6]": {"tested_on": "COMBE", "experiment": "Greenhouse post-emergence herbicidal action against COMBE", "type": "in vivo, Commelina benghalensis", "conditions": "21 days", "source_text": "as §1, §2, §3, §4, §5, §6"}, "[7]": {"tested_on": "POAPR", "experiment": "Pre-emergence herbicidal action against POAPR", "type": "in vivo, Poa pratensis", "conditions": "21 days", "protocol": "as §4\n(§7) In the examples below, the mixtures were applied by the pre-emergence method. To this end, the test plants were initially sown and covered with a thin layer of soil. Afterward (i.e. prior to the germination of the test plants), the mixtures according to the invention were sprayed onto the soil as an aqueous spray liquor at the stated application rate. As in the post-emergence method described above, the test period was 21 days. The damage was then evaluated as described above using a scale from 0 to 100% damage in comparison to untreated control plants (0% damage).\n(§8) A safener action is present if the damage to the crop plant caused by using a mixture according to the invention which contains a safener C) is less than the damage caused when active compound A or active compounds A and B are used without safener."}, "[8]": {"tested_on": "TRFPR", "experiment": "Pre-emergence herbicidal action against TRFPR", "type": "in vivo, Trifolium pratense", "conditions": "21 days", "protocol": "as §4, §7, §8"}, "[9]": {"tested_on": "TRZAW", "experiment": "Pre-emergence safener action (crop damage) in TRZAW", "type": "in vivo, Triticum aestivum (Winter wheat)", "conditions": "21 days", "protocol": "as §4, §7, §8"}, "[10]": {"tested_on": "BIDPI", "experiment": "Greenhouse post-emergence herbicidal action against BIDPI", "type": "in vivo, Bidens pilosa", "source_text": "as §1, §2, §3, §4, §5, §6"}, "[11]": {"tested_on": "GALAP", "experiment": "Greenhouse post-emergence herbicidal action against GALAP", "type": "in vivo, Galium aparine", "conditions": "21 days", "source_text": "as §1, §2, §3, §4, §5, §6"}, "[12]": {"tested_on": "AMARE", "experiment": "Greenhouse post-emergence herbicidal action against AMARE", "type": "in vivo, Amaranthus retroflexus", "source_text": "as §1, §2, §3, §4, §5, §6"}, "[13]": {"conditions": "application rate g/ha: I.7 1.95, b13.1 500"}, "[14]": {"conditions": "application rate g/ha: I.7 3.91, b13.1 1000"}, "[15]": {"conditions": "application rate g/ha: I.7 1.95, b3.2 62.5"}, "[16]": {"conditions": "application rate g/ha: I.7 3.91, b3.2 125"}, "[17]": {"conditions": "I.7 200 g/ha and/or c.1 200 g/ha"}, "[18]": {"conditions": "I.7 400 g/ha and/or c.1 400 g/ha"}, "[19]": {"conditions": "I.1 0.49 g/ha and/or b14.1 7.81 g/ha"}, "[20]": {"conditions": "I.1 0.98 g/ha and/or b14.1 15.63 g/ha"}, "[21]": {"conditions": "I.1 1.95 g/ha and/or b10.1 125 g/ha"}, "[22]": {"conditions": "I.1 3.91 g/ha and/or b10.1 250 g/ha"}}}
{"smiles": "CC(C)N(C)S(=O)(=O)NC(=O)c1cc(-n2c(=O)cc(C(F)(F)F)n(C)c2=O)c(F)cc1Cl", "note": "[I.7]", "values": [{"measurement": "Herbicidal action against AVEFA found", "setting": "[1]; 21 days, application rate g/ha: I.7 1.95, b3.1 62.5", "value": 10, "unit": "%"}, {"measurement": "Herbicidal action against AVEFA found", "setting": "[1]; 21 days, application rate g/ha: I.7 1.95, b6.1 125", "value": 10, "unit": "%"}, {"measurement": "Herbicidal action against AVEFA found", "setting": "[1]; 21 days, application rate g/ha: I.7 1.95, b7.1 250", "value": 10, "unit": "%"}, {"measurement": "Herbicidal action against AVEFA found", "setting": "[1]; 21 days, application rate g/ha: I.7 3.91, b3.1 125", "value": 15, "unit": "%"}, {"measurement": "Herbicidal action against AVEFA found", "setting": "[1]; 21 days, application rate g/ha: I.7 3.91, b6.1 250", "value": 15, "unit": "%"}, {"measurement": "Herbicidal action against AVEFA found", "setting": "[1]; 21 days, application rate g/ha: I.7 3.91, b7.1 500", "value": 15, "unit": "%"}, {"measurement": "Herbicidal action against POLPE found", "setting": "[2]; application rate g/ha: I.7 1.95, b3.1 62.5", "value": 0, "unit": "%"}, {"measurement": "Herbicidal action against POLPE found", "setting": "[2]; application rate g/ha: I.7 1.95, b7.1 250", "value": 0, "unit": "%"}, {"measurement": "Herbicidal action against POLPE found", "setting": "[2]; [13]", "value": 0, "unit": "%"}, {"measurement": "Herbicidal action against POLPE found", "setting": "[2]; application rate g/ha: I.7 3.91, b3.1 125", "value": 25, "unit": "%"}, {"measurement": "Herbicidal action against POLPE found", "setting": "[2]; application rate g/ha: I.7 3.91, b7.1 500", "value": 25, "unit": "%"}, {"measurement": "Herbicidal action against POLPE found", "setting": "[2]; [14]", "value": 25, "unit": "%"}, {"measurement": "Herbicidal action against BRAPL found", "setting": "[3]; [15]", "value": 40, "unit": "%"}, {"measurement": "Herbicidal action against BRAPL found", "setting": "[3]; [16]", "value": 60, "unit": "%"}, {"measurement": "Herbicidal action against ECHCG found", "setting": "[4]; [15]", "value": 0, "unit": "%"}, {"measurement": "Herbicidal action against ECHCG found", "setting": "[4]; [16]", "value": 30, "unit": "%"}, {"measurement": "Herbicidal action against ABUTH found", "setting": "[5]; application rate g/ha: I.7 0.98, b3.3 31.25", "value": 0, "unit": "%"}, {"measurement": "Herbicidal action against ABUTH found", "setting": "[5]; application rate g/ha: I.7 0.98, b3.4 31.25", "value": 0, "unit": "%"}, {"measurement": "Herbicidal action against ABUTH found", "setting": "[5]; application rate g/ha: I.7 1.95, b3.3 62.5", "value": 30, "unit": "%"}, {"measurement": "Herbicidal action against ABUTH found", "setting": "[5]; application rate g/ha: I.7 1.95, b3.4 62.5", "value": 30, "unit": "%"}, {"measurement": "Herbicidal action against COMBE found", "setting": "[6]; [13]", "value": 0, "unit": "%"}, {"measurement": "Herbicidal action against COMBE found", "setting": "[6]; [14]", "value": 0, "unit": "%"}, {"measurement": "Herbicidal action against POAPR", "setting": "[7]; [17]", "value": 98, "unit": "%"}, {"measurement": "Herbicidal action against POAPR", "setting": "[7]; [18]", "value": 98, "unit": "%"}, {"measurement": "Herbicidal action against TRFPR", "setting": "[8]; [17]", "value": 100, "unit": "%"}, {"measurement": "Herbicidal action against TRFPR", "setting": "[8]; [18]", "value": 100, "unit": "%"}, {"measurement": "Damage to crop plant TRZAW", "setting": "[9]; [17]", "value": 10, "unit": "%"}, {"measurement": "Damage to crop plant TRZAW", "setting": "[9]; [18]", "value": 35, "unit": "%"}]}
{"smiles": "CN(C)S(=O)(=O)NC(=O)c1cc(-n2c(=O)cc(C(F)(F)F)n(C)c2=O)c(F)cc1Cl", "note": "[I.1]", "values": [{"measurement": "Herbicidal action against BIDPI found", "setting": "[10]; [19]", "value": 20, "unit": "%"}, {"measurement": "Herbicidal action against BIDPI found", "setting": "[10]; [20]", "value": 30, "unit": "%"}, {"measurement": "Herbicidal action against BIDPI found", "setting": "[10]; [21]", "value": 40, "unit": "%"}, {"measurement": "Herbicidal action against BIDPI found", "setting": "[10]; [22]", "value": 50, "unit": "%"}, {"measurement": "Herbicidal action against AVEFA found", "setting": "[1]; 21 days, application rate g/ha: I.1 0.98, b9.1 125", "value": 5, "unit": "%"}, {"measurement": "Herbicidal action against AVEFA found", "setting": "[1]; 21 days, application rate g/ha: I.1 1.95, b9.1 250", "value": 10, "unit": "%"}, {"measurement": "Herbicidal action against AVEFA found", "setting": "[1]; [21]", "value": 10, "unit": "%"}, {"measurement": "Herbicidal action against AVEFA found", "setting": "[1]; [22]", "value": 10, "unit": "%"}, {"measurement": "Herbicidal action against POLPE found", "setting": "[2]; application rate g/ha: I.1 0.49, b4.1 0.98", "value": 10, "unit": "%"}, {"measurement": "Herbicidal action against POLPE found", "setting": "[2]; application rate g/ha: I.1 0.98, b4.1 1.95", "value": 25, "unit": "%"}, {"measurement": "Herbicidal action against ABUTH found", "setting": "[5]; application rate g/ha: I.1 1.95, b1.2 31.25", "value": 20, "unit": "%"}, {"measurement": "Herbicidal action against ABUTH found", "setting": "[5]; application rate g/ha: I.1 3.91, b1.2 62.5", "value": 30, "unit": "%"}, {"measurement": "Herbicidal action against GALAP found", "setting": "[11]; application rate g/ha: I.1 1.95, b1.1 62.5", "value": 20, "unit": "%"}, {"measurement": "Herbicidal action against GALAP found", "setting": "[11]; application rate g/ha: I.1 1.95, b1.3 + c.1 62.5 + 67.5", "value": 50, "unit": "%"}, {"measurement": "Herbicidal action against GALAP found", "setting": "[11]; application rate g/ha: I.1 3.91, b1.1 125", "value": 20, "unit": "%"}, {"measurement": "Herbicidal action against GALAP found", "setting": "[11]; application rate g/ha: I.1 3.91, b1.3 + c.1 125 + 135.9", "value": 60, "unit": "%"}, {"measurement": "Herbicidal action against AMARE found", "setting": "[12]; [19]", "value": 60, "unit": "%"}, {"measurement": "Herbicidal action against AMARE found", "setting": "[12]; [20]", "value": 60, "unit": "%"}]}
{"smiles": "CNC.C[C@@H](Oc1ccc(Cl)cc1Cl)C(=O)O", "note": "[b13.1, dichlorprop-P dimethylammonium salt, reference compound]", "values": [{"measurement": "Herbicidal action against POLPE found", "setting": "[2]; [13]", "value": 30, "unit": "%"}, {"measurement": "Herbicidal action against POLPE found", "setting": "[2]; [14]", "value": 30, "unit": "%"}, {"measurement": "Herbicidal action against COMBE found", "setting": "[6]; [13]", "value": 40, "unit": "%"}, {"measurement": "Herbicidal action against COMBE found", "setting": "[6]; [14]", "value": 75, "unit": "%"}]}
